SMILES strings stand for the structures.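 Step 1: Grow cells in 96-well plates. Step 2: Expose to compound for 48 hours at 5 concentrations. Step 3: Interpolate endpoints linearly; if unreached, use highest concentration. TGI denotes the concentration required for complete inhibition of growth.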 A value given as a limit tells only on which side of the number the result lay.

Test systems include SR leukemia; ACHN renal; SF-295 CNS; KM12 colon; MOLT-4 leukemia; OVCAR-5 ovarian; MDA-N; MALME-3M melanoma; NCI-H23 lung; CCRF-CEM leukemia; HCC-2998 colon; PC-3 prostate; NCI/ADR-RES ovarian; SNB-19 CNS; NCI-H522 lung; NCI-H226 lung; SK-OV-3 ovarian; OVCAR-4 ovarian; HL-60(TB) leukemia; MDA-MB-231 breast.
Experiment in all cases: growth of human tumour cells (NCI), 48 h

Consider `O=c1[nH]c(=O)n(CCOc2ccccc2)cc1Nc1ccccc1`, for which the TGI in the test with SR leukemia, in the test on ACHN renal, with SF-295 CNS, in the test on KM12 colon, in the test on MOLT-4 leukemia and in the test with OVCAR-5 ovarian was above 100 µM in each case. Also, the TGI with MDA-N, in the test on MALME-3M melanoma, in the test on NCI-H23 lung, with CCRF-CEM leukemia, with HCC-2998 colon and in the test on PC-3 prostate was above 100 µM throughout. Besides, the TGI in the test on NCI/ADR-RES ovarian, with SNB-19 CNS and with NCI-H522 lung was above 100 µM in each case.

`COc1ccc2c(c1)C(=O)Cc1ccccc1CC2`: the TGI with NCI-H226 lung, with SR leukemia, with ACHN renal, in the test with SF-295 CNS, in the test with KM12 colon and in the test on SK-OV-3 ovarian was above 100 µM throughout. Further, the TGI in the test on MOLT-4 leukemia, in the test on OVCAR-5 ovarian, in the test with MALME-3M melanoma, in the test with OVCAR-4 ovarian, in the test with NCI-H23 lung and in the test on CCRF-CEM leukemia was above 100 µM each time. In addition, the TGI in the test on HCC-2998 colon, in the test with HL-60(TB) leukemia, in the test on SNB-19 CNS and in the test on NCI-H522 lung was above 100 µM throughout.

Consider `CCCCC(=O)c1ccc2ccccc2c1O`, for which the TGI with NCI-H226 lung, in the test with SR leukemia, with ACHN renal, in the test on SF-295 CNS, in the test with KM12 colon and in the test on SK-OV-3 ovarian was above 100 µM throughout. Also, the TGI in the test with MOLT-4 leukemia, in the test with OVCAR-4 ovarian, in the test on MDA-MB-231 breast, with NCI-H23 lung, with CCRF-CEM leukemia and in the test on HCC-2998 colon was above 100 µM each time. In addition, the TGI in the test on PC-3 prostate, with HL-60(TB) leukemia, in the test on NCI/ADR-RES ovarian and in the test with SNB-19 CNS was above 100 µM throughout.

For `Cc1ccc(/C(Cl)=C/C=C(C#N)C#N)cc1`, the TGI is 17.2 µM with NCI-H226 lung; 7.47 µM in the test on SR leukemia; 5.29 µM with ACHN renal; 26.9 µM in the test on SF-295 CNS; 21 µM in the test with KM12 colon; 26.1 µM in the test on SK-OV-3 ovarian. The TGI in the test on MOLT-4 leukemia was above 100 µM; in the test with OVCAR-5 ovarian it was 7.48 µM; in the test with MALME-3M melanoma, 16.1 µM; in the test with OVCAR-4 ovarian it was 8.74 µM; in the test on MDA-MB-231 breast, 6.33 µM; with NCI-H23 lung it was 3.36 µM. Further, the TGI is above 100 µM with CCRF-CEM leukemia; above 100 µM with PC-3 prostate; 36.9 µM in the test with HL-60(TB) leukemia; 4.48 µM in the test on NCI/ADR-RES ovarian; 24 µM in the test on SNB-19 CNS; 5.17 µM with NCI-H522 lung.

With `[Cl-].[Rh+3].c1cnc2c(c1)ccc1cccnc12.c1cnc2c(c1)ccc1cccnc12.c1cnc2c(c1)ccc1cccnc12`, the TGI in the test with SR leukemia, with ACHN renal, with SF-295 CNS, in the test with KM12 colon, in the test with SK-OV-3 ovarian and with MOLT-4 leukemia was above 100 µM in each case. Further, the TGI in the test on OVCAR-5 ovarian, with MALME-3M melanoma, in the test on OVCAR-4 ovarian, with NCI-H23 lung, in the test on CCRF-CEM leukemia and in the test with HCC-2998 colon was above 100 µM throughout. Also, the TGI in the test on HL-60(TB) leukemia and with NCI-H522 lung was above 100 µM each time.

`CCOCc1c(C)cc(C)c(C2C(C(=O)c3ccccc3)N3c4ccccc4C=CC3C2(C#N)C(=O)OCC)c1C` (stereo not drawn): the TGI was above 100 µM in the test with SR leukemia; above 100 µM in the test with ACHN renal; above 100 µM in the test with SF-295 CNS; 54.9 µM in the test with KM12 colon; above 100 µM in the test with MOLT-4 leukemia; above 100 µM in the test on OVCAR-5 ovarian. Moreover, the TGI with MDA-N was 87 µM; in the test on OVCAR-4 ovarian, above 100 µM; in the test on NCI-H23 lung, above 100 µM; in the test on CCRF-CEM leukemia, above 100 µM; in the test on HCC-2998 colon it was 47.8 µM; with PC-3 prostate it was above 100 µM. The TGI in the test on HL-60(TB) leukemia, in the test with NCI/ADR-RES ovarian and with SNB-19 CNS was above 100 µM each time.

With `O=S(=O)(O)C1=C2Sc3ccccc3N=C2c2ccccc2C1`, the TGI with NCI-H226 lung stood at 35.5 µM; with SR leukemia it was 20.6 µM; in the test on ACHN renal it was 25.1 µM; with SF-295 CNS, 26.7 µM; in the test on KM12 colon, 29.5 µM; in the test on SK-OV-3 ovarian, 44.1 µM. Moreover, the TGI turned out to be 29.1 µM in the test with MOLT-4 leukemia; 34.5 µM in the test on OVCAR-5 ovarian; 30 µM with MALME-3M melanoma; 33.8 µM in the test with OVCAR-4 ovarian; 31.1 µM in the test on NCI-H23 lung; 24.3 µM in the test with CCRF-CEM leukemia. Also, the TGI came out at 31.4 µM with HCC-2998 colon, 21.2 µM in the test with HL-60(TB) leukemia, 51.6 µM in the test on SNB-19 CNS and 31.3 µM in the test on NCI-H522 lung.

Turning to `Cc1cccc(C(C)C)c1NC(=O)/C(Cc1c([N+](=O)[O-])cccc1[N+](=O)[O-])=N/NC(=O)CC#N`, the TGI with NCI-H226 lung, with ACHN renal, in the test on SF-295 CNS, in the test with KM12 colon, with SK-OV-3 ovarian and with MOLT-4 leukemia was above 100 µM in each case. Besides, the TGI in the test on OVCAR-5 ovarian, in the test with MALME-3M melanoma, in the test with CCRF-CEM leukemia, in the test on HCC-2998 colon, with HL-60(TB) leukemia and in the test on SNB-19 CNS was above 100 µM in each case. The TGI in the test with NCI-H522 lung is above 100 µM.

As for `O=[N+]([O-])c1ccc2c(c1)S(=O)(=O)N1Cc3ccccc3CCN21`, the TGI with NCI-H226 lung, with SR leukemia, in the test with ACHN renal, with SF-295 CNS, in the test with KM12 colon and with MOLT-4 leukemia was above 100 µM in each case. Moreover, the TGI with OVCAR-5 ovarian, in the test with MALME-3M melanoma, in the test with OVCAR-4 ovarian, with MDA-MB-231 breast, in the test on NCI-H23 lung and with CCRF-CEM leukemia was above 100 µM throughout. Besides, the TGI in the test on HCC-2998 colon, in the test with PC-3 prostate, with HL-60(TB) leukemia, in the test with NCI/ADR-RES ovarian, in the test on SNB-19 CNS and in the test on NCI-H522 lung was above 100 µM throughout.

As to `O=C(Cn1c2c(c3ccccc31)CCCC2)N1CCCC1`, the TGI with SR leukemia, in the test with ACHN renal, in the test with SF-295 CNS, with SK-OV-3 ovarian, with OVCAR-5 ovarian and in the test on MDA-N was above 100 µM in each case. Moreover, the TGI is above 100 µM in the test on MALME-3M melanoma; 73.3 µM in the test with OVCAR-4 ovarian; above 100 µM in the test with NCI-H23 lung; above 100 µM in the test with HCC-2998 colon; above 100 µM with PC-3 prostate; above 100 µM with HL-60(TB) leukemia. Further, the TGI in the test with NCI/ADR-RES ovarian and in the test on SNB-19 CNS was above 100 µM in each case.

As to `Oc1c2cc(Cl)cc1COCc1cc(Cl)cc(c1O)COCc1cc(Cl)cc(c1O)COC2`, the TGI in the test on NCI-H226 lung, with SR leukemia, in the test with ACHN renal, in the test on SF-295 CNS, with KM12 colon and with SK-OV-3 ovarian was above 100 µM in each case. Also, the TGI with OVCAR-5 ovarian was above 100 µM; with OVCAR-4 ovarian, above 100 µM; in the test with NCI-H23 lung, 98.6 µM; with CCRF-CEM leukemia, 59.5 µM; with HCC-2998 colon, above 100 µM; in the test with PC-3 prostate, above 100 µM. In addition, the results for the TGI in the test with HL-60(TB) leukemia, with NCI/ADR-RES ovarian and with SNB-19 CNS were 8.43 µM, above 100 µM and above 100 µM, respectively.

Consider `COc1cc(/C=C2/SC(c3ccccc3)N(c3ccccc3Cl)C2=O)cc(OC)c1OC` (stereo not drawn), for which the TGI was above 100 µM in the test on NCI-H226 lung; 58.9 µM in the test with SR leukemia; above 100 µM in the test with ACHN renal; above 100 µM in the test with SF-295 CNS; above 100 µM with KM12 colon; 63.4 µM with SK-OV-3 ovarian. Further, the TGI in the test with MOLT-4 leukemia was 68.2 µM; with OVCAR-5 ovarian, above 100 µM; in the test with MDA-N it was 69.7 µM; in the test with MALME-3M melanoma, 64.7 µM; in the test on OVCAR-4 ovarian it was above 100 µM; with MDA-MB-231 breast it was above 100 µM. Also, the TGI is 81.7 µM in the test on NCI-H23 lung; 43.4 µM in the test with CCRF-CEM leukemia; above 100 µM with HCC-2998 colon; above 100 µM in the test on HL-60(TB) leukemia; 85.3 µM with NCI/ADR-RES ovarian; above 100 µM in the test on SNB-19 CNS. The same molecule displayed a TGI with NCI-H522 lung of 32.3 µM.

Regarding `OC1(c2ccccc2)C2CCN(CC2)C1CN1CCOCC1` (stereo not drawn), the TGI with NCI-H226 lung, with SR leukemia, in the test with ACHN renal, in the test on SF-295 CNS, in the test with KM12 colon and with SK-OV-3 ovarian was above 100 µM each time. Besides, the TGI in the test with MOLT-4 leukemia, in the test on OVCAR-5 ovarian, with MALME-3M melanoma, in the test on OVCAR-4 ovarian, in the test on MDA-MB-231 breast and in the test on NCI-H23 lung was above 100 µM each time. In addition, the TGI with CCRF-CEM leukemia, in the test on HCC-2998 colon, with PC-3 prostate, in the test with HL-60(TB) leukemia, with NCI/ADR-RES ovarian and in the test with SNB-19 CNS was above 100 µM each time. In addition, the TGI in the test with NCI-H522 lung was above 100 µM.

The values above are taken from PubChem BioAssay (NCI).
